From patent US6410523B1, “Vitamin D derivatives substituted at the 2beta-position” (Chugai Seiyaku Kabushiki Kaisha, priority 1998, dated 2002)

Assays:
[1] = molecular target: T1, rat plasma vitamin D binding protein (Rattus norvegicus, UniProt P04276); experiment: Affinity for rat plasma vitamin D binding protein (3H-25-hydroxyvitamin D3 competition, dextran coated charcoal); details: for 50% binding ability: amount of the test compound providing B/B0=0.5, 3H-25-hydroxyvitamin D3 as radioligand
T1 construct: from tissue; host or cells: rat plasma
T1 sequence (P04276 17-476): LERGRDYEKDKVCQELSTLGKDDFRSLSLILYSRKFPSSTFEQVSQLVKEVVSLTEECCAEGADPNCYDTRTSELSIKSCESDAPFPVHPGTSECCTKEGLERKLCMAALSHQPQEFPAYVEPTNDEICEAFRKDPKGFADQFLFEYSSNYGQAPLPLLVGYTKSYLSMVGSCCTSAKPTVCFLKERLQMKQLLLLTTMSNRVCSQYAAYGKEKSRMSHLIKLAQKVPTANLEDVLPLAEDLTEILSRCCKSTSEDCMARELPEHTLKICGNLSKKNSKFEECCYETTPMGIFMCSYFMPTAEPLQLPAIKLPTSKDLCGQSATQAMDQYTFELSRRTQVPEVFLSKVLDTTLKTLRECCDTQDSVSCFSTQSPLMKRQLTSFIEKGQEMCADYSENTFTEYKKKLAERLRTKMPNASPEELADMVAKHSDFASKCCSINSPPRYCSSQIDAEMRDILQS
Protocol: A solution of a chick small intestine vitamin D receptor, or a solution of a rat plasma vitamin D binding protein was added, and the resulting mixture was left to stand. Then, a dextran coated charcoal solution was added, and the mixture was left to stand in ice cooling, and centrifuged. To the supernatant, a liquid scintillator was added, and the mixture was measured for radioactivity. B/B0 (B=the value of radioactivity measured upon addition of the test compound, B0=the value of radioactivity measured without addition of the test compound) was calculated to find the concentration of the test compound at which B/B0=0.5.
(§1) (50% binding ability refers to the amount of the test compound providing B/B0=0.5)

[2] = molecular target: T2, chick small intestine vitamin D receptor (Gallus gallus, UniProt O42392); experiment: Affinity for chick small intestine vitamin D receptor (3H-1α,25-dihydroxyvitamin D3 competition, dextran coated charcoal); assay type: binding; details: amount of the test compound providing B/B0=0.5; 3H-1α,25-dihydroxyvitamin D3 as radioligand
T2 construct: A solution of a chick small intestine vitamin D receptor; from tissue; host or cells: chick small intestine
T2 sequence (O42392 1-451): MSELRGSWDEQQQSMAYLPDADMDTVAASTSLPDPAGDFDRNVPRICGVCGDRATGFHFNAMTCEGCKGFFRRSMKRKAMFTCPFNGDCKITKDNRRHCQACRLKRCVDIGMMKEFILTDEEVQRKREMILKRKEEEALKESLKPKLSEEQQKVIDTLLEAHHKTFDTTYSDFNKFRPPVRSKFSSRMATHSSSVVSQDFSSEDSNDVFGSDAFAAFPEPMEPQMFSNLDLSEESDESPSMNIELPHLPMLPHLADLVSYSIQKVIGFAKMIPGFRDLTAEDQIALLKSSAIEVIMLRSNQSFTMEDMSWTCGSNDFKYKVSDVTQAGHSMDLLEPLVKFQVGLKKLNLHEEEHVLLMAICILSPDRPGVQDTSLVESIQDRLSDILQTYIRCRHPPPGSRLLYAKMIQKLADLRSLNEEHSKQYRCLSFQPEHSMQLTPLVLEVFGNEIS
Protocol: A solution of a chick small intestine vitamin D receptor, or a solution of a rat plasma vitamin D binding protein was added, and the resulting mixture was left to stand. Then, a dextran coated charcoal solution was added, and the mixture was left to stand in ice cooling, and centrifuged. To the supernatant, a liquid scintillator was added, and the mixture was measured for radioactivity.
as §1

Ratio ([1]; affinity relative to 1,25-dihydroxyvitamin D3 = 1)	50% binding ability [1] [ng]	50% binding ability [2] [ng]	Structure (SMILES)
129	0.209	–	C=C1CC[C@H](O)C/C1=C/C=C1\CCC[C@]2(C)[C@@H]([C@H](C)CCCC(C)(C)O)CC[C@@H]12 [25-Hydroxyvitamin D3, 25-hydroxyvitamin D3]
–	4	0.455	C=C1/C(=C\C=C2/CCC[C@@]3(C)C2CC[C@@H]3[C@H](C)CCCC(C)(C)O)CC(O)C(OCCC(=O)OC)C1O (stereo partly drawn) [Compound 2, 2β-(2-methoxycarbonylethyloxy)-1α, 3β,25-trihydroxy-9,10-secocholesta-5,7,10(19)-triene]
